Assay results published in patent US11160272B2, “Methods for preserving tissue with medical grade honey” (TRITICUM EXPLOITATIE B.V., priority 2017, dated 2021).

System: bovine ovarian cortex tissue
Assay: Endothelial cell density (Factor VIII immunolocalization) in cultured ovarian cortex tissue
Assay type: cell-based
Details: treatment mean over 0 h, 4 h, 24 h, 48 h; L-Mesitran 0.2%, VEGF 50 ng.mL-1; in vitro culture TCM-199 with 10% cow serum
From the text: Four mature crossbred beef cows (12 months of age) were used for this study. […] The 0.2% v/v concentration (L-Mesitran) was chosen according to the highest reported pro-angiogenic effect for this medical grade honey in an in vitro tissue culture. The ovarian cortex endothelial immunolocalization was quantified using Factor VIII [9] R Ag. Rabbit Polyclonal Antibody (ref 760-2642; BenchMark ULTRA IHC/ISH Module staining protocol; Ventana Medical Systems, Inc.; Roche, USA) at concentrations of 2.26 µg/ml, and Fiji software for the digital analysis, after 0 h, 4 h, 24 h and 48 h in each of the mentioned 4 groups. Cellular cytotoxicity (quantitation of lactate dehydrogenase, LDH [11], in cell culture supernatant) was also evaluated in the same mentioned time periods (CytoTox 96® Non-Radioactive Cytotoxicity Assay G1782, Promega GloMax Multi Detection System).
Data from ovarian cortex tissue endothelial density (immunohistochemistry data) and LDH quantification in cell culture supernatant, were analysed using the proc glimmix of SAS (Statistical Analysis Systems, SAS Inst., Inc., Cary, N.C., USA). The models included treatments and hours as fixed effects, and animal (cow) as random (co-variable) effect. The means of each treatment/hours were calculated and compared by the PDIFF multiple comparison test. The differences were considered significant for P≤0.05.

VEGF
Endothelial cell density (Factor VIII immunolocalization), treatment effect: 0.2942±0.1486
